Measurements from patent US7265149B2, “Indolyl derivatives” (Hoffmann-La Roche Inc., priority 2004, dated 2007).

Experiments:
PPARδ = target: T1, PPARδ (Homo sapiens, UniProt Q03181); assay: PPARδ radioligand binding assay (scintillation proximity); details: GST-PPARδ-LBD fusion protein on SPA beads
T1 construct: PPARδ (aa 139 to 442); made in house; host or cells: E. coli BL21 (pLysS)
T1 sequence (Q03181 139-441 limits assumed): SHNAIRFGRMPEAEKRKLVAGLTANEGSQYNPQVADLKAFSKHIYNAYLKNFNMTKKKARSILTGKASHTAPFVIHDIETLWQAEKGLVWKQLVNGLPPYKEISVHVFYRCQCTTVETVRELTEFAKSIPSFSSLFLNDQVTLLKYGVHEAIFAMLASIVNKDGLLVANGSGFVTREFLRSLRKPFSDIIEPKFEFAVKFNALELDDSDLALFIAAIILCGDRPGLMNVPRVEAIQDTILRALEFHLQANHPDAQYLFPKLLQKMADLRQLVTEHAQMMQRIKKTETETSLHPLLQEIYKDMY
Text: (§1) Background information on the performed assays can be found in: Nichols J S et al. “Development of a scintillation proximity assay for peroxisome proliferator-activated receptor gamma ligand binding domain”, (1998) Anal. Biochem. 257: 112-119.
(§2) Full-length cDNA clones for humans PPARδ and PPARα and mouse PPARγ were obtained by RT-PCR from human adipose and mouse liver cRNA, respectively, cloned into plasmid vectors and verified by DNA sequencing. Bacterial and mammalian expression vectors were constructed to produce glutathione-s-transferase (GST) and Gal4 DNA binding domain proteins fused to the ligand binding domains (LBD) of PPARδ (aa 139 to 442), PPARγ (aa 174 to 476) and PPARα (aa 167 to 469). To accomplish this, the portions of the cloned sequences encoding the LBDs were amplified from the full-length clones by PCR and then subcloned into the plasmid vectors. Final clones were verified by DNA sequence analysis.
(§3) Induction, expression, and purification of GST-LBD fusion proteins were performed in E. coli strain BL21 (pLysS) cells by standard methods (Ref: Current Protocols in Molecular Biology, Wiley Press, edited by Ausubel et al.).
(§4) Radioligand Binding Assay
PPARδ receptor binding was assayed in HNM10 (50 mM Hepes, pH 7.4, 10 mM NaCl, 5 mM MgCl2, 0.15 mg/ml fatty acid-free BSA and 15 mM DTT). For each 96 well reaction a 500 ng equivalent of GST-PPARδ-LBD fusion protein and radioligand, e.g. 20000 dpm {2-methyl-4-[4-methyl-2-(4-trifluoromethyl-phenyl)-thiazol-5-yl-ditritiomethylsulfanyl]-phenoxy}-acetic acid, was bound to 10 μg SPA beads (PharmaciaAmersham) in a final volume of 50 μl by shaking. The resulting slurry was incubated for 1 h at RT and centrifuged for 2 min at 1300 g. […] Radioligand was added and the reaction incubated at RT for 1 h and scintillation proximity counting performed in the presence of test compounds was determined. All binding assays were performed in 96 well plates and the amount of bound ligand was measured on a Packard TopCount using OptiPlates (Packard). […]

PPARγ = target: T2, PPARγ (Mus musculus, UniProt P37238); assay: PPARγ radioligand binding assay (scintillation proximity); details: GST-PPARγ-LBD fusion protein on SPA beads
T2 construct: PPARγ (aa 174 to 476); made in house; host or cells: E. coli BL21 (pLysS)
T2 sequence (P37238 174-475 isoform P37238-2): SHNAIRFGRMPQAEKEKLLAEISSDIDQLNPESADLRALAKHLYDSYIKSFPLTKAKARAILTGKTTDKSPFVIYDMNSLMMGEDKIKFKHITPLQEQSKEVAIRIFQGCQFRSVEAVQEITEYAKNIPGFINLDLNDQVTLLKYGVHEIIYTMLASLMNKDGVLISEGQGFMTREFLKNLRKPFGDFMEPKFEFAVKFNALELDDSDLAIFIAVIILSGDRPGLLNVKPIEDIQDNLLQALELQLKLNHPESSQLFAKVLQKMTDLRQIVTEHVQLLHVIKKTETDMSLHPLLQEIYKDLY
Text: as §1, §2, §3, §4
PPARγ receptor binding was assayed in TKE50 (50 mM Tris-HCl, pH 8, 50 mM KCl, 2 mM EDTA, 0.1 mg/ml fatty acid-free BSA and 10 mM DTT). For each 96 well reaction an 140 ng equivalent of GST-PPARγ-LBD fusion protein was bound to 10 μg SPA beads (PharmaciaAmersham) in a final volume of 50 ul by shaking. The resulting slurry was incubated for 1 h at RT and centrifuged for 2 min at 1300 g. The supernatant containing unbound protein was removed and the semidry pellet containig the recptor-coated beads was resolved in 50 μl of TKE. […] All binding assays were performed in 96 well plates and the amount of bound ligand measured on a Packard TopCount using OptiPlates (Packard). Nonspecific binding was determined in the presence of 10^−4 M unlabelled compound. […]

PPARα = target: T3, PPARα (Homo sapiens, UniProt Q07869); assay: PPARα radioligand binding assay (scintillation proximity); details: GST-PPARα-LBD fusion protein on SPA beads
T3 construct: PPARα (aa 167 to 469); made in house; host or cells: E. coli BL21 (pLysS)
T3 sequence (Q07869 167-468 limits assumed): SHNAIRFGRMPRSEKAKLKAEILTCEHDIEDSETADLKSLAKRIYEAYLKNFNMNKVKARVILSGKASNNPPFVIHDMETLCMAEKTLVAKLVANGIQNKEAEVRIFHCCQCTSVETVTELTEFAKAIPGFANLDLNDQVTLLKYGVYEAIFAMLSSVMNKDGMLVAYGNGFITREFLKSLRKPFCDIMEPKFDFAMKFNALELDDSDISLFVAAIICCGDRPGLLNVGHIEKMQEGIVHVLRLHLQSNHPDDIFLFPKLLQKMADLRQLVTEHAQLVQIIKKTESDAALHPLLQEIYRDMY
Text: as §1
as §2, with “analysis. […]” for “analysis.”
PPARα receptor binding was assayed in TKE50 (50 mM Tris-HCl, pH 8, 50 mM KCl, 2 mM EDTA, 0.1 mg/ml fatty acid-free BSA and 10 mM DTT). […] All binding assays were performed in 96 well plates and the amount of bound ligand measured on a Packard TopCount using OptiPlates (Packard). Nonspecific binding was determined in the presence of 10^−4 M unlabelled compound. […]

| Structure (SMILES) | IC50 (PPARδ) | IC50 (PPARγ) | IC50 (PPARα) |
| --- | --- | --- | --- |
| Cc1c(-c2ccc(Cl)cc2)nn(C)c1COc1ccc2ccn(CC(=O)O)c2c1 [Example 2, {6-[5-(4-Chloro-phenyl)-2,4-dimethyl-2H-pyrazol-3-ylmethoxy]-indol-1-yl}-acetic acid] | 140 nM | ≥ 10000 nM | – |
| Cn1nc(-c2ccc(C(F)(F)F)cc2)c(Br)c1COc1ccc2ccn(CC(=O)O)c2c1 [Example 8, {6-[4-Bromo-2-methyl-5-(4-trifluoromethyl-phenyl)-2H-pyrazol-3-ylmethoxy]-indol-1-yl}-acetic acid] | 4 nM | ≥ 10000 nM | 2570 nM |
| Cn1nc(-c2ccc(OC(F)(F)F)cc2)cc1CCCOc1ccc2ccn(CC(=O)O)c2c1 [Example 20, (6-{3-[2-Methyl-5-(4-trifluoromethoxy-phenyl)-2H-pyrazol-3-yl]-propoxy}-indol-1-yl)-acetic acid] | 43 nM | ≥ 10000 nM | 13 nM |
